Data as given in ChEMBL document CHEMBL5532749, “Synthesis and functional evaluation of proteinogenic amino acid-derived synthetic cannabinoid receptor agonists related to MPP-5F-PICA, MMB-5F-PICA, and MDMB-5F-PICA” (RSC Med Chem, 2024).

Key:
Format in all cases: functional, cell-based
Cannabinoid receptor 2 [1] = biological target: T1, Cannabinoid receptor 2 (Homo sapiens, UniProt P34972); experiment: Agonist activity at human CB2 receptor stably transfected in AtT20 cells assessed as maximal efficacy at 10 uM incubated for 60 mins by FLIPR membrane potential assay relative to control
Cannabinoid receptor 1 [2] = biological target: T2, Cannabinoid receptor 1 (Homo sapiens, UniProt P21554); experiment: Agonist activity at human CB1 receptor stably transfected in AtT20 cells assessed as maximal efficacy at 10 uM incubated for 60 mins by FLIPR membrane potential assay relative to control
Cannabinoid receptor 1 [3] = biological target: T2, Cannabinoid receptor 1; experiment: Agonist activity at HA-tagged human CB1 receptor stably transfected in AtT20 cells assessed as maximal efficacy at 30 uM incubated for 60 mins by FLIPR membrane potential assay relative to control; details: filed as agonist
Cannabinoid receptor 1 [4] = biological target: T2, Cannabinoid receptor 1; experiment: Agonist activity at HA-tagged human CB1 receptor stably transfected in AtT20 cells incubated for 60 mins by FLIPR membrane potential assay
Cannabinoid receptor 2 [5] = biological target: T1, Cannabinoid receptor 2; experiment: Agonist activity at HA-tagged human CB2 receptor stably transfected in AtT20 cells incubated for 60 mins by FLIPR membrane potential assay
Cannabinoid receptor 2 [6] = biological target: T1, Cannabinoid receptor 2; experiment: Agonist activity at HA-tagged human CB2 receptor stably transfected in AtT20 cells assessed as maximal efficacy at 30 uM incubated for 60 mins by FLIPR membrane potential assay relative to control; details: filed as agonist
Cannabinoid receptor 1 [7] = biological target: T2, Cannabinoid receptor 1; experiment: Agonist activity at human CB1 receptor stably transfected in AtT20 cells incubated for 60 mins by FLIPR membrane potential assay
Cannabinoid receptor 2 [8] = biological target: T1, Cannabinoid receptor 2; experiment: Agonist activity at human CB2 receptor stably transfected in AtT20 cells incubated for 60 mins by FLIPR membrane potential assay
Cannabinoid receptor 1 [9] = biological target: T2, Cannabinoid receptor 1; experiment: Agonist activity at human CB1 receptor stably transfected in AtT20 cells assessed as maximal efficacy at 30 uM incubated for 60 mins by FLIPR membrane potential assay relative to control; details: filed as agonist
Cannabinoid receptor 2 [10] = biological target: T1, Cannabinoid receptor 2; experiment: Agonist activity at human CB2 receptor stably transfected in AtT20 cells assessed as maximal efficacy at 30 uM incubated for 60 mins by FLIPR membrane potential assay relative to control; details: filed as agonist

T1 sequence (P34972 whole entry): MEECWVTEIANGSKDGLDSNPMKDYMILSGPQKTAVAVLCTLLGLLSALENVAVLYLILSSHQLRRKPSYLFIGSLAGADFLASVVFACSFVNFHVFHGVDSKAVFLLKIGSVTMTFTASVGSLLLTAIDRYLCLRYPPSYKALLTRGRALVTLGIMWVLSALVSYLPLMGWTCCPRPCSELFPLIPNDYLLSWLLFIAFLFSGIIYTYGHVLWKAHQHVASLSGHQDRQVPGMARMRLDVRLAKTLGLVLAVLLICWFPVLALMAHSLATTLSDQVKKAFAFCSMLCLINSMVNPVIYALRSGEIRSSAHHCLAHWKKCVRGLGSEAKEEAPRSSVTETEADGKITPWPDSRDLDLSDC
T2 sequence (P21554 whole entry): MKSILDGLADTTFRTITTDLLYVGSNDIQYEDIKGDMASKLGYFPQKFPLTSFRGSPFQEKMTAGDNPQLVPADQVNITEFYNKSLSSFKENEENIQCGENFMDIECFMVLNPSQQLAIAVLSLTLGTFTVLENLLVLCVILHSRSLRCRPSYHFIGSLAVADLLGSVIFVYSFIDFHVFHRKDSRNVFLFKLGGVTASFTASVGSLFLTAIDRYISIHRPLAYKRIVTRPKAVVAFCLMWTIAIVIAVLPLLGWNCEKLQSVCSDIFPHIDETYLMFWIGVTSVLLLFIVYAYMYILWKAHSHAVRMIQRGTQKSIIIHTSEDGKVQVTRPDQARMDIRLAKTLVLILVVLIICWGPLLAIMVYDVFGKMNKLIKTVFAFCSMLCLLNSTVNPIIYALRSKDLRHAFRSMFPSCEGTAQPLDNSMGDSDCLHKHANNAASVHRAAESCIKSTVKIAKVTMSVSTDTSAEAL

Structure (SMILES)	EC50 (Cannabinoid receptor 1 [7]; read-out: EC50) [nM]	EC50 (Cannabinoid receptor 2 [8]) [nM]	Emax (Cannabinoid receptor 1 [9]) [%]	Emax (Cannabinoid receptor 2 [10]) [%]	further results
COC(=O)[C@@H](Cc1c[nH]c2ccccc12)NC(=O)c1cn(CCCCCF)c2ccccc12					Emax (Cannabinoid receptor 2 [1]): 17%; Emax (Cannabinoid receptor 1 [2]): 9%
COC(=O)[C@@H](NC(=O)c1cn(CCCCCF)c2ccccc12)C(C)C					Emax (Cannabinoid receptor 1 [3]): 107%; EC50 (Cannabinoid receptor 1 [4]): 2.4 nM; EC50 (Cannabinoid receptor 2 [5]): 4.6 nM; Emax (Cannabinoid receptor 2 [6]): 94%
COC(=O)[C@H](NC(=O)c1cn(CCCCCF)c2ccccc12)[C@H](C)O	2310	93.4	105	81	
COC(=O)[C@H](C)NC(=O)c1cn(CCCCCF)c2ccccc12	78.8	59.5	108	86	
COC(=O)[C@@H](NC(=O)c1cn(CCCCCF)c2ccccc12)C(C)(C)C					Emax (Cannabinoid receptor 1 [3]): 110%; EC50 (Cannabinoid receptor 1 [4]): 0.45 nM; EC50 (Cannabinoid receptor 2 [5]): 7.4 nM; Emax (Cannabinoid receptor 2 [6]): 94%
COC(=O)[C@@H](CCSC)NC(=O)c1cn(CCCCCF)c2ccccc12	206	95	139	90	
COC(=O)[C@H](CCC(N)=O)NC(=O)c1cn(CCCCCF)c2ccccc12		199		90	Emax (Cannabinoid receptor 1 [2]; filed as agonist): 94%
COC(=O)[C@@H](CO)NC(=O)c1cn(CCCCCF)c2ccccc12					Emax (Cannabinoid receptor 2 [1]; filed as agonist): 46%; Emax (Cannabinoid receptor 1 [2]; filed as agonist): 66%
CC[C@H](C)[C@H](NC(=O)c1cn(CCCCCF)c2ccccc12)C(=O)OC	27.6	19.2	145	124	
CC[C@@H](C)[C@@H](NC(=O)c1cn(CCCCCF)c2ccccc12)C(=O)OC	33.5	26.8	121	107	
COC(=O)[C@H](Cc1c[nH]c2ccccc12)NC(=O)c1cn(CCCCCF)c2ccccc12					Emax (Cannabinoid receptor 2 [1]): 37%; Emax (Cannabinoid receptor 1 [2]): 34%
COC(=O)[C@@H]1CCCN1C(=O)c1cn(CCCCCF)c2ccccc12	20.7	13.4	106	86	
COC(=O)[C@@H](CCCCN)NC(=O)c1cn(CCCCCF)c2ccccc12		1270		74	Emax (Cannabinoid receptor 1 [2]; filed as agonist): 58%
COC(=O)[C@@H](Cc1ccc(O)cc1)NC(=O)c1cn(CCCCCF)c2ccccc12					Emax (Cannabinoid receptor 2 [1]; filed as agonist): 40%; Emax (Cannabinoid receptor 1 [2]; filed as agonist): 57%
COC(=O)[C@@H](C)NC(=O)c1cn(CCCCCF)c2ccccc12		478	71	72	
COC(=O)[C@@H](CCC(N)=O)NC(=O)c1cn(CCCCCF)c2ccccc12	3630	445	116	76	
COC(=O)[C@H](CCSC)NC(=O)c1cn(CCCCCF)c2ccccc12	358	59.6	151	81	
COC(=O)[C@H](CCCCN)NC(=O)c1cn(CCCCCF)c2ccccc12					Emax (Cannabinoid receptor 2 [1]): 4%; Emax (Cannabinoid receptor 1 [2]): 12%
COC(=O)[C@H](Cc1ccccc1)NC(=O)c1cn(CCCCCF)c2ccccc12	4.63	7.41	108	99	EC50 (Cannabinoid receptor 1 [7]; read-out: pEC50 (converted)): 4.57 nM
COC(=O)[C@@H](NC(=O)c1cn(CCCCCF)c2ccccc12)[C@@H](C)O	49	148	134	60	
COC(=O)CNC(=O)c1cn(CCCCCF)c2ccccc12					Emax (Cannabinoid receptor 2 [1]): 12%; Emax (Cannabinoid receptor 1 [2]; filed as agonist): 40%
COC(=O)[C@H](CC(C)C)NC(=O)c1cn(CCCCCF)c2ccccc12	25.5	7.16	136	99	
COC(=O)[C@H]1CCCN1C(=O)c1cn(CCCCCF)c2ccccc12					Emax (Cannabinoid receptor 2 [1]): 7%; Emax (Cannabinoid receptor 1 [2]): 33%
COC(=O)[C@@H](Cc1ccccc1)NC(=O)c1cn(CCCCCF)c2ccccc12	441	586	107	57	
COC(=O)[C@H](NC(=O)c1cn(CCCCCF)c2ccccc12)C(C)C	104	16.2	130	107	
COC(=O)[C@@H](CC(C)C)NC(=O)c1cn(CCCCCF)c2ccccc12	23.9	53.2	150	112	
COC(=O)[C@H](Cc1ccc(O)cc1)NC(=O)c1cn(CCCCCF)c2ccccc12	182	87.7	135	98	
COC(=O)[C@H](CO)NC(=O)c1cn(CCCCCF)c2ccccc12	200	625	123	41	
COC(=O)[C@H](NC(=O)c1cn(CCCCCF)c2ccccc12)C(C)(C)C	16.4	56.5	129	96	
